Results: patent publication US20250179077A1, “QUINAZOLINE COMPOUNDS AND USES THEREOF AS INHIBITORS OF MUTANT KRAS PROTEINS” (AMGEN INC., priority 2022, published 2025)
Like-named read-outs stand apart in the source and are kept apart here.

Assays:
[1] = system: Phosphorylation of ERK1/2 in AsPC-1 cells; assay: Phospho-ERK1/2 MSD Assay; format: cell-based
Description: AsPC-1 (ATCC® CRL-1682™) cells were cultured in RPMI 1640 Medium (ThermoFisher Scientific 11875093) containing 10% fetal bovine serum (ThermoFisher Scientific 16000044) and Ix penicillin-streptomycin-glutamine (ThermoFisher Scientific 10378016). Sixteen hours prior to compound treatment, AsPC-1 cells were seeded in 96-well cell culture plates at a density of 25,000 cells/well and incubated at 37° C., 5% CO2. A compound dose-response titration was diluted in growth media, added to appropriate wells of a cell culture plate, and then incubated at 37° C., 5% CO2 for 2 h. Following compound treatment, cells were washed with ice-cold Dulbecco's phosphate-buffered saline, no Ca^2+ or Mg^2+ (ThermoFisher Scientific 14190144), and then lysed in RIPA buffer (50 mM Tris-HCl pH 7.5, 1% Igepal, 0.5% sodium deoxycholate, 150 mM NaCl, and 0.5% sodium dodecyl sulfate) containing protease inhibitors (Roche 4693132001) and phosphatase inhibitors (Roche 4906837001). Phosphorylation of ERK1/2 in compound-treated lysates was assayed using Phospho-ERK1/2 Whole Cell Lysate kits (Meso Scale Discovery K151DWD) according to the manufacturer's protocol. Assay plates were read on a Meso Scale Discovery Sector Imager 6000, and data were analyzed using a 4-parameter logistic model to calculate IC50 values.

[2] = molecular target: His-tagged KRAS G12D protein (Homo sapiens, UniProt P01116, G12D); assay: KRAS G12D TR-FRET Assay; format: binding
Sequence of His-tagged KRAS G12D protein (P01116 1-188 isoform P01116-2 G12D): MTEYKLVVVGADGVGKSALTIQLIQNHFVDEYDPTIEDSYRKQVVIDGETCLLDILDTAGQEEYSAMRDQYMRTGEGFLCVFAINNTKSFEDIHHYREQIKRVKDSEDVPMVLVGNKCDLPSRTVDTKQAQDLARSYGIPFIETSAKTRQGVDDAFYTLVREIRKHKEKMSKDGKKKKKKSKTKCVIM
Description: KRAS G12D TR-FRET Assay Compounds of interest were prepared in a dose-response titration in DMSO, and 80 nL were added via Labcyte Echo to each well of a 384-well plate (Perkin Elmer 6008280). The His-tagged KRAS G12D protein (Amgen) was diluted to 20 nM in Assay Buffer (20 mM HEPES, pH 7.4, 10 mM MgCl2, 50 mM NaCl, 0.1% BSA, 0.01% Tween-20, 10 μM GDP) and 2 uL was added to the appropriate wells of the 384-well plate. The plate was incubated for 30 minutes at room temperature. Biotinylated KRPep-2d substrate (Amgen) was diluted to 20 nM in Assay Buffer and 2 μL was added to all wells and incubated for 1 hour at room temperature. Detection Reagent (0.4 nM LANCE Eu-W1024 Anti-6×-His (Perkin Elmer AD0401), 5 nM streptavidin-d2 (Cisbio 610SADLA)) was prepared in Assay Buffer, then 4 μL was added to the plate and incubated for 1 hour at room temperature. Plates were read using PerkinElmer EnVision (ex: 320 nm, em1: 665 nm, em2: 615 nm) and em1/em2 data was used to generate curve fits using a 4-parameter logistic model to calculate IC50 values.

[3] = molecular target: GDP-bound KRAS protein (aa 1-169), containing both G12D and C118A amino acid substitutions (Homo sapiens, UniProt P01116, C118A/G12D); assay: KRAS G12D Coupled Nucleotide Exchange Assay; format: biochemical
Sequence of GDP-bound KRAS protein (aa 1-169), containing both G12D and C118A amino acid substitutions (P01116 1-169 isoform P01116-2 G12D/C118A): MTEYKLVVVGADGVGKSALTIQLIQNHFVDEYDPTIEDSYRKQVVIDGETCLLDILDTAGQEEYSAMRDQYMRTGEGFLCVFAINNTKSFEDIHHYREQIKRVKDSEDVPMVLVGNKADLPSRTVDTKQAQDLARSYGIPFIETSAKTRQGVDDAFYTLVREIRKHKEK
Description: KRAS G12D Coupled Nucleotide Exchange Assay
Following compound pre-incubation, purified SOS protein (aa 564-1049) and GTP (Roche 10106399001) were added to the assay wells and incubated for an additional 30 min. […] The assay plates were then read on a PerkinElmer EnVision Multilabel Reader, using AlphaScreen® technology, and data were analyzed using a 4-parameter logistic model to calculate IC50 values.

[4] = Homo sapiens, ASPC1, 2 h, read-out: 2 h p-ERK (AsPC-1 cells), IC50, AsPC-1 cells, 2 h compound treatment
[5] = read-out: 2 h p-ERK (AsPC-1 cells), IC50, AsPC-1 cells, 2 h compound treatment

IC50 [1, 4]	IC50 [2]	IC50 [3]	IC50 [1, 5]	Compound	IC50 ([1]; Homo sapiens, ASPC1, read-out: 2 h p-ERK (AsPC-1 cells), IC50, AsPC-1 cells, 2 h compound treatment)
0.166 µM	0.004 µM	0.003 µM	–	Cc1cc2[nH]ncc2c(-c2ccc3c(N4CCC[C@@](C)(O)C4)nc(OC[C@@]45CCCN4C[C@H](F)C5)nc3c2F)c1[C@H]1C[C@H]1C (single isomer, unassigned) [Example 107]	–
0.039 µM	0.005 µM	0.003 µM	–	C/C=C\c1c(Cl)cc2[nH]ncc2c1-c1c(F)cc2c(N3CCC[C@](O)(CF)C3)nc(OC[C@@]34CCCN3C[C@H](F)C4)nc2c1F (single isomer, unassigned) [Example 101]	–
0.012 µM	0.003 µM	0.003 µM	–	CCc1cccc2cc(O)cc(-c3ccc4c(N5CCOCC(C)(O)C5)nc(OC[C@@]56CCCN5C[C@H](F)C6)nc4c3F)c12 (single isomer, unassigned) [Example 30]	–
–	0.07 µM	0.080 µM	–	CCc1c(F)ccc2cc(O)cc(-c3ccc4c(N5CCCC(O)(C(F)F)C5)nc(OC[C@@]56CCCN5C[C@H](F)C6)nc4c3F)c12 (single isomer, unassigned) [Example 24]	–
0.023 µM	0.003 µM	0.003 µM	–	C#Cc1cccc2cc(O)cc(-c3ccc4c(N5CCC[C@@](C)(O)C5)nc(OC[C@@]56CCCN5C[C@H](F)C6)nc4c3F)c12 [Example 50, (R)-1-(7-(8-Ethynyl-3-hydroxynaphthalen-1-yl)-8-fluoro-2-(((2R,7a.S)-2-fluorotetrahydro-1H-pyrrolizin-7a(5H)-yl)methoxy)quinazolin-4-yl)-3-methylpiperidin-3-ol]	–
–	0.003 µM	0.004 µM	0.01 µM	CCc1c(F)ccc2cc(O)cc(-c3c(F)cc4c(N5CCCC6(CCO6)C5)nc(OC[C@@]56CCCN5C[C@H](F)C6)nc4c3F)c12 (single isomer, unassigned) [Example 39]	–
0.009 µM	0.005 µM	0.003 µM	–	CCc1c(F)ccc2cc(O)cc(-c3ccc4c(N5CCC[C@]6(CCO6)C5)nc(OC[C@@]56CCCN5C[C@H](F)C6)nc4c3F)c12 (single isomer, unassigned) [Example 76]	–
–	0.001 µM	–	0.003 µM	CCc1c(F)ccc2cc(O)cc(-c3c(F)cc4c(N5CCCC6(CNC(=O)O6)C5)nc(OC[C@@]56CCCN5C[C@H](F)C6)nc4c3F)c12 (single isomer, unassigned) [Example 58]	–
–	0.437 µM	0.087 µM	–	CCc1c(F)ccc2cc(O)cc(-c3c(F)cc4c(N5CCCC6(CNC(=O)O6)C5)nc(OC[C@@]56CCCN5C[C@H](F)C6)nc4c3F)c12 (single isomer, unassigned) [Example 57]	–
–	0.01 µM	0.010 µM	–	Cc1c(Cl)cc2[nH]ncc2c1-c1c(F)cc2c(N3CCC[C@@](C)(O)C3)nc(OC[C@@]34CCCN3C[C@H](F)C4)nc2c1F [Example 49, (3R)-1-(7-(6-Chloro-5-methyl-1H-indazol-4-yl)-6,8-difluoro-2-(((2R,7aS)-2-fluorotetrahydro-1H-pyrrolizin-7a(5H)-yl)methoxy)quinazolin-4-yl)-3-methylpiperidin-3-ol]	–
–	0.122 µM	0.043 µM	–	CCc1c(F)ccc2cc(O)cc(-c3c(F)cc4c(N5CCOCC(C)(O)C5)nc(OC[C@@]56CCCN5C[C@H](F)C6)nc4c3F)c12 (single isomer, unassigned) [Example 35]	–
–	0.04 µM	0.040 µM	–	CCc1c(F)ccc2cc(O)cc(-c3c(F)cc4c(N5CCCC(O)(C(F)F)C5)nc(OC[C@@]56CCCN5C[C@H](F)C6)nc4c3F)c12 (single isomer, unassigned) [Example 21]	–
–	0.022 µM	0.023 µM	–	Cc1cc2[nH]ncc2c(-c2c(F)cc3c(N4CCC[C@@](C)(O)C4)nc(OC[C@@]45CCCN4C[C@H](F)C5)nc3c2F)c1Cl [Example 48, (3R)-1-(7-(5-Chloro-6-methyl-1H-indazol-4-yl)-6,8-difluoro-2-(((2R,7a.S)-2-fluorotetrahydro-1H-pyrrolizin-7a(5H)-yl)methoxy)quinazolin-4-y1)-3-methylpiperidin-3-ol]	–
0.074 µM	–	–	–	C#Cc1c(F)ccc2cc(N)cc(-c3c(F)cc4c(N5CCC[C@@](C)(O)C5)nc(OC[C@@]56CCCN5C[C@H](F)C6)nc4c3F)c12 (single isomer, unassigned) [Example 64]	–
–	0.273 µM	0.302 µM	–	CCc1c(F)ccc2cc(O)cc(-c3c(O)cc4c(N5CCC[C@@](C)(O)C5)nc(OC[C@@]56CCCN5C[C@H](F)C6)nc4c3F)c12 (single isomer, unassigned) [Example 28]	–
–	0.729 µM	0.272 µM	–	CCc1c(F)ccc2cc(N)cc(-c3c(F)cc4c(N5CCC[C@@](C)(O)C5)nc(OC[C@@]56CCCN5C[C@H](F)C6)nc4c3F)c12 (single isomer, unassigned) [Example 61]	–
–	0.657 µM	0.589 µM	–	C#Cc1c(F)ccc2cccc(-c3c(F)cc4c(N5CCC[C@@](C)(O)C5)nc(OC[C@@]56CCCN5C[C@H](F)C6)nc4c3F)c12 (single isomer, unassigned) [Example 66]	–
–	0.022 µM	0.011 µM	–	CCc1c(F)ccc2cc(O)cc(-c3ccc4c(N5CCC(C(N)=O)C5)nc(OC[C@@]56CCCN5C[C@H](F)C6)nc4c3F)c12 (stereo partly drawn) [Example 8, 1-(7-(8-Ethyl-7-fluoro-3-hydroxynaphthalen-1-yl)-8-fluoro-2-(((2R,7aS)-2-fluorotetrahydro-1H-pyrrolizin-7a(5H)-yl)methoxy)quinaquinazolin-4-yl)pyrrolidine-3-carboxamide]	–
–	0.223 µM	0.138 µM	–	C#Cc1c(F)ccc2cc(N)cc(-c3c(F)cc4c(N5CCC[C@@](C)(O)C5)nc(OC[C@@]56CCCN5C[C@H](F)C6)nc4c3F)c12 (single isomer, unassigned) [Example 63]	–
–	0.212 µM	0.186 µM	–	C#Cc1cccc2cc(O)cc(-c3c(F)cc4c(N5CCC[C@@](C)(O)C5)nc(OC[C@@]56CCCN5C[C@H](F)C6)nc4c3F)c12 (single isomer, unassigned) [Example 11]	–
–	0.096 µM	0.058 µM	–	CCc1c(F)ccc2cc(O)cc(-c3c(F)cc4c(N5CCCC(O)(C(F)F)C5)nc(OC[C@@]56CCCN5C[C@H](F)C6)nc4c3F)c12 (single isomer, unassigned) [Example 22]	–

Compound	IC50 [1, 4]	IC50 [2]	IC50 [3]	IC50 [1, 5]	IC50 ([1]; Homo sapiens, ASPC1, read-out: 2 h p-ERK (AsPC-1 cells), IC50, AsPC-1 cells, 2 h compound treatment)
C/C=C\c1c(Cl)cc2[nH]ncc2c1-c1c(F)cc2c(N3CCC[C@@](C)(O)C3)nc(OC[C@@]34CCCN3C[C@H](F)C4)nc2c1F [Example 119, (3R)-1-(7-(6-Chloro-5-((Z)-prop-1-en-1-yl)-1H-indazol-4-yl)-6,8-difluoro-2-(((2R,7aS)-2-fluorotetrahydro-1H-pyrrolizin-7a(5H)-yl)methoxy)quinazolin-4-yl)-3-methylpiperidin-3-ol]	–	0.016 µM	0.011 µM	–	0.111 µM
CCc1c(F)ccc2cc(O)cc(-c3c(F)cc4c(N5CCC[C@@](C)(O)C5)nc(OC[C@@]56CCCN5C[C@H](F)C6)nc4c3F)c12 (atropisomer, axis not shown) [Example 3, (3R)-1-(7-(8-Ethyl-7-fluoro-3-hydroxynaphthalen-1-yl)-6,8-difluoro-2-(((2R,7a.S)-2-fluorotetrahydro-1H-pyrrolizin-7a(5H)-yl)methoxy)quinazolin-4-yl)-3-methylpiperidin-3-ol]	–	0.127 µM	0.134 µM	–	–
